Measured values taken from ChEMBL document CHEMBL2203009, “Synthesis of isoindole and benzoisoindole derivatives of teicoplanin pseudoaglycon with remarkable antibacterial and antiviral activities” (Bioorg Med Chem Lett, 2012).
Values after ≈ are worked out from the molar mass of the structure shown.

Tests used:
Influenza B virus = assay: Antiviral activity against Influenza B virus (B/Hong Kong/05/1972) […] infected in MDCK cells assessed as inhibition of virus-induced cytopathic effect; type: functional, cell-based; conditions: B/Hong Kong/05/1972, MDCK
Enterococcus faecalis [1] = assay: Antimicrobial activity against Enterococcus faecalis ATCC 51299 over-expressing vanB; type: functional
[2] = tested on: Staphylococcus epidermidis; assay: Antimicrobial activity against Staphylococcus epidermidis ATCC 35984 biofilms; type: functional
[3] = tested on: Staphylococcus epidermidis; assay: Antimicrobial activity against Staphylococcus epidermidis over-expressing MecA; type: functional
Human alphaherpesvirus 1 [4] = assay: Antiviral activity against HSV1 KOS infected in HEL cells assessed as inhibition of virus-induced cytopathic effect; type: functional, organism-based; conditions: Human alphaherpesvirus 1, KOS
Human alphaherpesvirus 2 = assay: Antiviral activity against HSV2 G infected in HEL cells assessed as inhibition of virus-induced cytopathic effect; type: functional, organism-based; conditions: Human alphaherpesvirus 2, strain G
[5] = Toxicity in HEL cells assessed as induction of cell morphology changes; type: cell-based; conditions: human
Vaccinia virus = assay: Antiviral activity against Vaccinia virus infected in HEL cells assessed as inhibition of virus-induced cytopathic effect; type: functional, organism-based; conditions: Orthopoxvirus vaccinia
Human alphaherpesvirus 1 [6] = assay: Antiviral activity against thymidine kinase deficient and acyclovir-resistant HSV1 KOS infected in HEL cells assessed as inhibition of virus-induced cytopathic effect; type: functional, organism-based; conditions: Human alphaherpesvirus 1, KOS
Bacillus subtilis = assay: Antimicrobial activity against Bacillus subtilis ATCC 6633; type: functional
Enterococcus faecalis [7] = assay: Antimicrobial activity against Enterococcus faecalis 15376 over-expressing vanA; type: functional
[8] = Toxicity in MDCK cells assessed as induction of cell morphology changes; type: cell-based, Canis lupus familiaris; conditions: dog
Staphylococcus aureus [9] = assay: Antimicrobial activity against methicillin-resistant Staphylococcus aureus ATCC 33591; type: functional
Staphylococcus aureus [10] = assay: Antimicrobial activity against methicillin-sensitive Staphylococcus aureus ATCC 29213; type: functional
Enterococcus faecalis [11] = assay: Antimicrobial activity against Enterococcus faecalis ATCC 29212; type: functional
Influenza A virus = assay: Antiviral activity against Influenza A virus (A/Puerto Rico/8/1934(H1N1)) H1N1 infected in MDCK cells assessed as inhibition of virus-induced cytopathic effect; type: functional, organism-based
H3N2 subtype = assay: Antiviral activity against Influenza A virus (A/Hong Kong/7/1987(H3N2)) […] infected in MDCK cells assessed as inhibition of virus-induced cytopathic effect; type: functional, organism-based
[12] = tested on: Vesicular stomatitis virus; assay: Antiviral activity against Vesicular stomatitis virus infected in HEL cells assessed as inhibition of virus-induced cytopathic effect; type: functional, organism-based

| Compound | EC50 (Influenza B virus) [µM] | MBC (Enterococcus faecalis [1]) [µg/mL] | MIC (Enterococcus faecalis [1]) [µg/mL] | MBC [2] [µg/mL] | MIC [2] [µg/mL] | MBC [3] [µg/mL] | MIC [3] [µg/mL] | EC50 (Human alphaherpesvirus 1 [4]) [µM] | EC50 (Human alphaherpesvirus 2) [µM] | MCC [5] [µM] | EC50 (Vaccinia virus) [µM] | EC50 (Human alphaherpesvirus 1 [6]) [µM] | MBC (Bacillus subtilis) [µg/mL] | MIC (Bacillus subtilis) [µg/mL] | MBC (Enterococcus faecalis [7]) [µg/mL] | MIC (Enterococcus faecalis [7]) [µg/mL] | MCC [8] [µM] | MBC (Staphylococcus aureus [9]) [µg/mL] | MIC (Staphylococcus aureus [9]) [µg/mL] | MBC (Staphylococcus aureus [10]) [µg/mL] | other results |
| --- | --- | --- | --- | --- | --- | --- | --- | --- | --- | --- | --- | --- | --- | --- | --- | --- | --- | --- | --- | --- | --- |
| CC(=O)N[C@H]1[C@H](O[C@@H]2c3ccc(c(Cl)c3)Oc3cc4cc(c3O)Oc3ccc(cc3Cl)C[C@H]3NC(=O)[C@H](n5cc6ccccc6c5Sc5ccccc5)c5ccc(O)c(c5)Oc5cc(O)cc(c5)[C@H](NC3=O)C(=O)N[C@H]4C(=O)N[C@H]3C(=O)N[C@@H]2C(=O)N[C@H](C(=O)O)c2cc(O)cc(O)c2-c2cc3ccc2O)O[C@H](CO)[C@@H](O)[C@@H]1O | > 100 | 256 (≈ 159 µM) | 2 (≈ 1.24 µM) | 0.5 (≈ 0.31 µM) | 0.0165 (≈ 0.0102 µM) | 32 (≈ 19.9 µM) | 2 (≈ 1.24 µM) | 9 | 9 | ≥ 20 | > 20 | ≥ 20 | 1 (≈ 0.621 µM) | 1 (≈ 0.621 µM) | 32 (≈ 19.9 µM) | 2 (≈ 1.24 µM) | 4 | 2 (≈ 1.24 µM) | 0.0625 (≈ 0.0388 µM) | 128 (≈ 79.5 µM) | MIC (Staphylococcus aureus [10]): 0.125 µg/mL (≈ 0.0776 µM); MBC (Enterococcus faecalis [11]): 256 µg/mL (≈ 159 µM); MIC (Enterococcus faecalis [11]): 0.0075 µg/mL (≈ 0.00466 µM); EC50 (Influenza A virus): > 100 µM; EC50 (H3N2 subtype): > 100 µM; EC50 [12]: > 20 µM |
| CC(=O)N[C@H]1[C@H](O[C@@H]2c3ccc(c(Cl)c3)Oc3cc4cc(c3O)Oc3ccc(cc3Cl)C[C@H]3NC(=O)[C@H](n5cc6ccccc6c5Sc5ncccn5)c5ccc(O)c(c5)Oc5cc(O)cc(c5)[C@H](NC3=O)C(=O)N[C@H]4C(=O)N[C@H]3C(=O)N[C@@H]2C(=O)N[C@H](C(=O)O)c2cc(O)cc(O)c2-c2cc3ccc2O)O[C@H](CO)[C@@H](O)[C@@H]1O | > 100 | 256 (≈ 159 µM) | 1 (≈ 0.62 µM) | 1 (≈ 0.62 µM) | 0.0165 (≈ 0.0102 µM) | 64 (≈ 39.7 µM) | 4 (≈ 2.48 µM) | 47 | 45 | > 100 | ≥ 58 | 50 | 0.5 (≈ 0.31 µM) | 0.0625 (≈ 0.0388 µM) | 256 (≈ 159 µM) | 0.0625 (≈ 0.0388 µM) | 20 | 8 (≈ 4.96 µM) | 0.0313 (≈ 0.0194 µM) | 0.5 (≈ 0.31 µM) | MIC (Staphylococcus aureus [10]): 0.0313 µg/mL (≈ 0.0194 µM); MBC (Enterococcus faecalis [11]): 256 µg/mL (≈ 159 µM); MIC (Enterococcus faecalis [11]): 0.0313 µg/mL (≈ 0.0194 µM); EC50 (Influenza A virus): > 100 µM; EC50 (H3N2 subtype): > 100 µM; EC50 [12]: > 100 µM |
| CC(=O)N[C@H]1[C@H](O[C@@H]2c3ccc(c(Cl)c3)Oc3cc4cc(c3O)Oc3ccc(cc3Cl)C[C@H]3NC(=O)[C@H](n5cc6ccccc6c5Sc5nc6ccccc6s5)c5ccc(O)c(c5)Oc5cc(O)cc(c5)[C@H](NC3=O)C(=O)N[C@H]4C(=O)N[C@H]3C(=O)N[C@@H]2C(=O)N[C@H](C(=O)O)c2cc(O)cc(O)c2-c2cc3ccc2O)O[C@H](CO)[C@@H](O)[C@@H]1O | > 100 | 256 (≈ 154 µM) | 0.0625 (≈ 0.0375 µM) | 0.5 (≈ 0.3 µM) | 0.0075 (≈ 0.0045 µM) | 256 (≈ 154 µM) | 4 (≈ 2.4 µM) | 45 | 45 | ≥ 100 | 47 | 45 | 2 (≈ 1.2 µM) | 1 (≈ 0.6 µM) | 256 (≈ 154 µM) | 0.0313 (≈ 0.0188 µM) | 4 | 0.5 (≈ 0.3 µM) | 0.0075 (≈ 0.0045 µM) | 0.5 (≈ 0.3 µM) | MIC (Staphylococcus aureus [10]): 0.0075 µg/mL (≈ 0.0045 µM); MBC (Enterococcus faecalis [11]): 256 µg/mL (≈ 154 µM); MIC (Enterococcus faecalis [11]): 2 µg/mL (≈ 1.2 µM); EC50 (Influenza A virus): > 100 µM; EC50 (H3N2 subtype): > 100 µM; EC50 [12]: > 100 µM |
| CC(=O)N[C@H]1[C@H](O[C@@H]2c3ccc(c(Cl)c3)Oc3cc4cc(c3O)Oc3ccc(cc3Cl)C[C@H]3NC(=O)[C@H](n5cc6cc7ccccc7cc6c5Sc5ccccc5)c5ccc(O)c(c5)Oc5cc(O)cc(c5)[C@H](NC3=O)C(=O)N[C@H]4C(=O)N[C@H]3C(=O)N[C@@H]2C(=O)N[C@H](C(=O)O)c2cc(O)cc(O)c2-c2cc3ccc2O)O[C@H](CO)[C@@H](O)[C@@H]1O | > 100 | 256 (≈ 154 µM) | 2 (≈ 1.2 µM) | 0.5 (≈ 0.301 µM) | 0.0313 (≈ 0.0189 µM) | 256 (≈ 154 µM) | 0.0313 (≈ 0.0189 µM) | > 20 | > 20 | 100 | > 20 | > 20 | 4 (≈ 2.41 µM) | 2 (≈ 1.2 µM) | 32 (≈ 19.3 µM) | 0.125 (≈ 0.0753 µM) | < 0.8 | 0.5 (≈ 0.301 µM) | 0.25 (≈ 0.151 µM) | 1 (≈ 0.602 µM) | MIC (Staphylococcus aureus [10]): 0.0313 µg/mL (≈ 0.0189 µM); MBC (Enterococcus faecalis [11]): 256 µg/mL (≈ 154 µM); MIC (Enterococcus faecalis [11]): 1 µg/mL (≈ 0.602 µM); EC50 (Influenza A virus): > 100 µM; EC50 (H3N2 subtype): > 100 µM; EC50 [12]: > 20 µM |
| CC(=O)N[C@H]1[C@H](O[C@@H]2c3ccc(c(Cl)c3)Oc3cc4cc(c3O)Oc3ccc(cc3Cl)C[C@H]3NC(=O)[C@H](n5cc6cc7ccccc7cc6c5Sc5ncccn5)c5ccc(O)c(c5)Oc5cc(O)cc(c5)[C@H](NC3=O)C(=O)N[C@H]4C(=O)N[C@H]3C(=O)N[C@@H]2C(=O)N[C@H](C(=O)O)c2cc(O)cc(O)c2-c2cc3ccc2O)O[C@H](CO)[C@@H](O)[C@@H]1O | > 50 | 256 (≈ 154 µM) | 1 (≈ 0.602 µM) | 0.5 (≈ 0.301 µM) | 0.015 (≈ 0.00902 µM) | 256 (≈ 154 µM) | 0.015 (≈ 0.00902 µM) | 40 | 27 | ≥ 100 | 10 | 45 | 2 (≈ 1.2 µM) | 0.0313 (≈ 0.0188 µM) | 256 (≈ 154 µM) | 0.5 (≈ 0.301 µM) | 13 | 0.5 (≈ 0.301 µM) | 0.015 (≈ 0.00902 µM) | 0.5 (≈ 0.301 µM) | MIC (Staphylococcus aureus [10]): 0.015 µg/mL (≈ 0.00902 µM); MBC (Enterococcus faecalis [11]): 256 µg/mL (≈ 154 µM); MIC (Enterococcus faecalis [11]): 0.015 µg/mL (≈ 0.00902 µM); EC50 (Influenza A virus): 0.54 µM; EC50 (H3N2 subtype): 0.54 µM; EC50 [12]: > 100 µM |
